Data from US20100184698A1, “USE OF A […] […] A […] AGENT” (priority 2007, published 2010).
Where no end group is shown, it is not given here.

Assays:
HIV-1IIIB = assay: HIV-1 antiviral assay in CEM-SS cells
HCMV strain AD169 = conditions: for inhibition of HCMV plaque formation as compared to the virus control experiment: 10 micrograms per ml, 7-10 days
[1] = tested on: hepatitis B virus (HBV) ayw strain in HepG2-2.2.15 cells; assay: HBV experimental assay system (secreted HBV DNA, TaqMan PCR); type: cell-based; conditions: 10 micrograms per ml; 6 days; combination 0.95 mole peptide 1 and 1.05 mole peptide 2
[2] = tested on: Interleukin-4 (IL-4) production in murine spleen cells; assay: Th1/Th2 cytokine profiling assay: IL-4; type: cell-based, Balb/c mice; conditions: 10 micrograms per ml, Ovalbumin restimulation, 72 hours
[3] = tested on: Interferon-γ (IFN-γ) production in murine spleen cells; assay: Th1/Th2 cytokine profiling assay: IFN-γ; type: cell-based, Balb/c mice; conditions: 10 micrograms per ml; Ovalbumin restimulation, 72 hours; combination 0.95:1.05 mole
[4] = tested on: Interleukin-2 (IL-2) production in murine spleen cells; assay: Th1/Th2 cytokine profiling assay: IL-2; type: cell-based, Balb/c mice; conditions: 10 micrograms per ml; Ovalbumin restimulation, 72 hours
[5] = tested on: Interleukin-5 (IL-5) production in murine spleen cells; assay: Th1/Th2 cytokine profiling assay: IL-5; type: cell-based, Balb/c mice; conditions: 10 micrograms per ml, Ovalbumin restimulation, 72 hours
[6] = tested on: Tumor Necrosis Factor-α (TNF-α) production in murine spleen cells; assay: Th1/Th2 cytokine profiling assay: TNF-α; type: cell-based, Balb/c mice; conditions: 10 micrograms per ml, Ovalbumin restimulation, 72 hours
[7] = tested on: Primary Human endothelial cells (HUVEC); assay: Endothelial cell migration assay; type: cell-based; conditions: 10 micrograms per ml; 22 hours
Method: Thereafter, designated concentration of testing peptides—10 micrograms per ml—was added in duplicate wells.

HUVEC = assay: Endothelial tube formation assay; type: cell-based, human; conditions: 10 micrograms per ml; 20 hours
From the text: Positive control was vehicle only.

Compound | antiviral activity of positive control compounds (HIV-1IIIB) | inhibition of HBV replication as compared to the virus control infection [1] | production of IFN-y, decreased by [3] | inhibition of the migration of human endothelial cells [7] | inhibition of the tube formation of human endothelial cells (HUVEC) | inhibition of HCMV plaque formation as compared to the virus control experiment (HCMV strain AD169) | also measured
Cc1cn([C@H]2C[C@H](N=[N+]=[N-])[C@@H](CO)O2)c(=O)[nH]c1=O [AZT] | expected levels of antiviral activity | – | – | – | – | – | –
Nc1nc(O)c2ncn(COC(CO)CO)c2n1 [Ganciclovir, reference compound] | – | – | – | – | – | – | antiviral activity of positive control compound (HCMV strain AD169; positive control, MRC-5 cells, HCMV): expected levels of antiviral activity
CC(C)(C)NC(=O)[C@@H]1CN(Cc2cccnc2)CCN1C[C@@H](O)C[C@@H](Cc1ccccc1)C(=O)N[C@H]1c2ccccc2C[C@H]1O [indinavir] | expected levels of antiviral activity | – | – | – | – | – | –
Ile-Asn-Leu-Lys-Ala-Leu-Ala-Ala-Leu-Ala-Lys-Lys-Ile-Leu-NH2 (INLKALAALAKKIL-NH2) [Peptide 2] | – | 40.6% | 54% | 23% | 10% | did not inhibit | change of the production of IL-4 ([2]; combination 0.95:1.05 mole): did not significantly change; production of IL-2, increased by [4]: 77%; change of the production of IL-5 ([5]; combination 0.95:1.05 mole): did not significantly change; production of TNF-a, decreased by [6]: 61.3%
CCNC(=O)[C@@H]1CCCN1C(=O)[C@H](CCCN=C(N)N)NC(=O)[C@H](CC(C)C)NC(=O)[C@@H](Cc1c[nH]c2ccccc12)NC(=O)[C@H](Cc1ccc(O)cc1)NC(=O)[C@H](CO)NC(=O)[C@H](Cc1c[nH]c2ccccc12)NC(=O)[C@H](Cc1cnc[nH]1)NC(=O)[C@@H]1CCC(=O)N1 [Peptide 1, Pyr-His-Trp-Ser-Tyr-D-Trp-Leu-Arg-Pro-NHEt] | – | 15.1% | 31.4% | 3% | 7% | did not inhibit | production of IL-4, induced by [2]: 32.1%; production of IL-2, decreased by [4]: 53.2%; production of IL-5, decreased by [5]: 27.6%; change of the production of TNF-alpha ([6]; combination 0.95:1.05 mole): did not significantly change
